This is an account of results in patent US12590164B2, “Productivity-enhanced antibody and method for producing same” (Yonsei University BioHealth Technology Holdings, Inc., priority 2018, dated 2026).

The test system of one data set is CHO-K1 cells. Briefly: Rituximab production by transduced CHO-K1 cells after addition of reagent (purified antibody amount, Western blotting of medium). Type of data set: cell-based, Chinese hamster. Particulars: for production of the heavy and light chains of rituximab over time: medium at 24, 48, 72 hours. The procedure:
Antibody Production: CHO-K1 cells were inoculated into a 12-well plate at 1×10^5 cells/well and then cultured. The next day, the culture medium having lentivirus-containing cells and a fresh culture medium were mixed at a ratio of 1:1, and treatment with this mixture was performed. Culture was performed for 24 hours. The culture medium was replaced with a new medium, and then treatment with puromycin and blasticidin at 10 μg/ml each was performed for selection. When 72 hours elapsed, the remaining cells were proliferated to obtain sufficient cells. For the cells thus obtained, the culture medium was replaced with a serum-free medium (EX-CELL CD CHO Serum-Free Medium for CHO Cells, Chemically Defined, Sigma, 14360C), and then treatment with Thiamet-G (Sigma Cat #SML0244) reagent at a concentration of 30 μM was performed. The cells were cultured in a CO2 incubator at 30° C. for 2 weeks. Then, the culture medium was collected and centrifuged at 1000 rcf for 3 minutes at 4° C. Only the supernatant was transferred separately into a clean tube, and the cells mixed with the supernatant were removed. The resultant was stored at 4° C.
Antibody Purification: the antibody-containing culture medium was treated with protein A agarose beads (Pierce Protein A Agarose, Therm Fisher Scientific, QE218104), and the reaction was allowed to proceed at 4° C. for 4 hours. The supernatant was removed by centrifugation, and washing with a washing buffer (0.1 M NaPO4, 0.15 M NaCl, pH 7.4) was performed five times. For the beads from which the supernatant was removed, elution was again performed 5 times with an elution buffer (0.2 M glycine, pH 3) in the same bead volume. […] Then, the total protein was quantified by the Bradford method.
To identify changes in protein amount of heavy and light chains of antibody caused by treatment with Thiamet-G, the following experiment was performed to check changes in antibody production over time after addition of Thiamet-G. The cell culture medium was collected when 24 hours, 48 hours, and 72 hours elapsed after addition of Thiamet-G at a concentration of 30 μM. […] The ECL solution was used to sensitize an x-ray film (FIG. 2), and production of the heavy and light chains at each time point was analyzed (FIG. 3).
During the antibody production process, the reagent OSMI-1 (Sigma #SML1621), which corresponds to an OGT inhibitor, at a concentration of 30 μM was added in place of Thiamet-G. Then, in the same manner as described above, the cell culture medium was collected when 24 hours, 48 hours, and 72 hours elapsed, and the production of the antibody and its heavy chain was analyzed through Western blotting (FIGS. 4-5). […]

The subject of data set [1] is CHO cell line expressing nivolumab. Nature of the data set: Antibody production after Thiamet-G, cell line expressing nivolumab. Type of data set: cell-based, Chinese hamster. Particulars: 50 μM, 30° C. The procedure: (§1) The next day, treatment with Thiamet-G at 50 μM in 3 ml of CHO medium was performed, and culture was performed at 30° C. for 2 weeks. Then, the medium was harvested. The same volume of medium was subjected to electrophoresis so that proteins were separated by size, and then the proteins were transferred to a PVDF membrane. Portions other than the proteins electrically transferred to the membrane were blocked with TBS-T containing 5% non-fat milk and 0.1% Tween 20 at room temperature for 1 hour. […] The ECL solution was used to sensitize an x-ray film (FIG. 19), and changes in production depending on treatment with Thiamet-G were measured for each antibody (FIG. 20).
(§2) The next day, treatment with Thiamet-G at 50 μM in 3 ml of CHO medium was performed, and culture was performed at 30° C. for 7 days. Then, the medium was harvested. The same volume of medium was subjected to electrophoresis so that proteins were separated by size, and then the proteins were transferred to a PVDF membrane. Portions other than the proteins electrically transferred to the membrane were blocked with TBS-T containing 5% non-fat milk and 0.1% Tween 20 at room temperature for 1 hour. […] The ECL solution was used to sensitize an x-ray film (FIGS. 22-23).

In data set [2] the test system is CHO cell line expressing rituximab. Nature of the data set: Antibody production after Thiamet-G, cell line expressing rituximab. Type of data set: cell-based, Chinese hamster. Particulars: 50 μM, 30° C. The procedure: as §1, §2
The test system of data set [3] is O-linked N-acetylgalactosamine (O-GalNAc) in rituximab. Briefly: Degree of binding of O-GalNAc in rituximab (Jacalin lectin blotting, LC-MS/MS). Type of data set: cell-based. The procedure:
The nitrocellulose membrane was blocked with PBS-T (Tween 0.5%) for 1 hour. Then, an O-GalNAc-binding lectin (biotinylated-Jacalin) was added thereto, and incubation was performed at room temperature for 1 hour. Washing with PBS-T was performed three times for 10 minutes each, and then incubation with streptavidin-HRP was performed at room temperature for 30 minutes. Washing with PBS-T was performed three times for 10 minutes each, and then the ECL solution was used to sensitize an x-ray film. […] Then, washing with TBS-T was performed three times for 10 minutes each. The ECL solution was used to sensitize an x-ray film (FIGS. 17A-17B).

Data set [4] deals with O-linked N-acetylglucosamine (O-GlcNAc) in rituximab. Briefly: Degree of binding of O-GlcNAc in rituximab (RL2 Western blotting, metabolic labeling). In kind it is cell-based. As for the experimental part: Based on the total protein amount, the isolated rituximab was subjected to electrophoresis on acrylamide gel so that proteins were separated by size. Then, the proteins were transferred to a nitrocellulose membrane. Portions other than the proteins electrically transferred to the nitrocellulose membrane were blocked with TBS-T containing 5% non-fat milk and 0.1% Tween 20 at room temperature for 1 hour. Incubation with O-linked N-acetylglucosamine (O-GlcNAc)-specific antibody (RL2-HRP) was performed at room temperature for 1 hour, and then washing with TBS-T was performed three times for 10 minutes each. The ECL solution was used to sensitize an x-ray film (FIG. 6A).
The ECL solution was used to sensitize an x-ray film (FIG. 6B).
The cell line was cultured for 72 hours in a serum-free RPMI medium treated with Thiamet-G (TMG) at 50 μM, and then harvested. Then, a cell lysate was prepared. […] Then, Coomassie blue staining was performed. The results are illustrated in FIGS. 7A-7B. Here, however, as a control, Mabthera (Mab) (Roche) was used.
To further identify differences in degree of binding of O-GlcNAc in antibody, a comparison of O-GlcNAc binding amount using metabolic labeling wax performed. […] The cell line was treated with Thiamet-G at 50 μM and Ac4GlcNAz (azido sugar) at 50 μM and cultured for 4 days. […] O-GlcNAc in the rituximab was subjected to metabolic labeling.

In data set [5] the test system is CHO cell line expressing pembrolizumab. Nature of the data set: Antibody production after Thiamet-G, cell line expressing pembrolizumab. Type of data set: cell-based, Chinese hamster. Particulars: 50 μM, 30° C. The procedure: as §1, §2
The subject of data set [6] is Ramos cells. Briefly: Binding affinity of rituximab to Ramos cells by flow cytometry. Particulars: 0.1-10 μg/ml, 4° C. 30 minutes, FACS; compared to the rituximab obtained without any treatment. As for the experimental part:
Then, incubation was performed at 4° C. for 30 minutes. Washing with PBS was performed once, and then treatment with anti-human Ig Fc-specific FITC-conjugated secondary antibody (109-095-008, 1:200 dilution; Jackson Laboratories), which was diluted […] with 50 μl PBS, was performed. Incubation was performed at 4° C. for 30 minutes. […] Analysis was performed with the FlowJo software (FIG. 14).

For data set [7], the system named is Ramos cells. Nature of the data set: Complement-dependent cytotoxicity with rabbit complement. In kind it is cell-based. Particulars: 0.1-10 ug/ml, rabbit complement 1:4, 2 hours; compared to the rituximab obtained without any treatment. The procedure:
Complement-Dependent Cytotoxicity (complementary dependent cell death): Ramos cells were treated with 5 uM of calcein-AM in a serum-free RPMI, and then incubated at 37° C. for 30 minutes. The stained Ramos cells were dispensed in an amount of 1×10^5 cells/well.

As for `COc1ccccc1[C@@H](NS(=O)(=O)c1ccc2[nH]c(=O)ccc2c1)C(=O)N(Cc1ccco1)Cc1cccs1` [OSMI-1], the “production of the heavy and light chains of rituximab over time” value in the data set on CHO-K1 cells (30 μM, Western blotting) was “extent of increase in production decreased as compared with the untreated negative control”.

Take `CCN=C1N[C@@H]2[C@@H](O)[C@H](O)[C@@H](CO)O[C@@H]2S1` [Thiamet-G]: the “production of the light chain of nivolumab” value in data set [1] (2 weeks) is listed as “increased remarkably by two or more times”. In addition, the production of nivolumab result in data set [1] (7 days) is reported as “increased remarkably”. Also, the “production of rituximab depending on treatment concentration” value in the data set on CHO-K1 cells (0, 30 or 50 μM for 72 hours, Western blotting) is “increased proportionally”. In addition, the “production of the purified rituximab antibody, increase versus no treatment” value in the data set on CHO-K1 cells (30 μM, 30° C., 2 weeks, FIG. 1) is “about 2 times”. Also, the “production of the heavy and light chains of rituximab over time” value in the data set on CHO-K1 cells (30 μM, Western blotting) is on record as “remarkably increased over time”. In data set [2] (2 weeks), the “production of the light chain of rituximab” value was “increased remarkably by two or more times”. The production of rituximab entry in data set [2] (7 days) is given as “increased remarkably”. Also, the “binding of O-GalNAc to light chain residues of rituximab” value in data set [3] (LC-MS/MS, untreated rituximab has O-GalNAc on 7 light chain residues) is “decreased in 5 out of the 7 residues”. In addition, the “O-GalNAc bound to rituximab” value in data set [3] (biotinylated-Jacalin lectin blotting, same amount of rituximab) is given as “decreased”. Also, the “O-GlcNAc in rituximab, metabolic labeling” value in data set [4] (50 μM with Ac4GlcNAz 50 μM, 4 days, streptavidin-HRP) was “increased”. Also, the O-GlcNAc in rituximab entry in data set [4] (50 μM, 2 weeks at 30° C., RL2-HRP, reducing and non-reducing conditions) was “increased”. In addition, the “degree of binding of O-GlcNAc in rituximab” value in data set [4] (rituximab of Example 1, RL2-HRP Western blotting, same amount of rituximab) is given as “increased”. In addition, in data set [5] (2 weeks), the “production of the light chain of pembrolizumab” value was “increased remarkably by two or more times”. Further, the production of pembrolizumab result in data set [5] (7 days) was “increased remarkably”.

In the case of “rituximab, which underwent O-linked glycosylation by treatment with Thiamet-G: rituximab (SEQ ID NO: 5 and 6) produced in CHO-K1 cells with Thiamet-G, O-GlcNAc bound to light chain serines 7, 12, 14, 181”, in the data set with Ramos cells [6], the binding affinity entry is “no difference”. Further, the complement-dependent cytotoxicity entry with Ramos cells [7] is listed as “no difference”.
